From PubChem BioAssay (NCI)
Several values for one entry are separate records, joined by “and”; a condition that tells them apart may be missing. Equal values may be shown once.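 Compound exposure: 48 hours, 5 concentrations, 96-well plates. The concentration for 50% growth inhibition is given as GI50. TGI denotes the concentration required for complete inhibition of growth.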

Legend:
Assay in all cases: NCI-60 cell line screen, 48 h
M19-MEL melanoma = system: M19-MEL melanoma
KM20L2 colon = system: KM20L2 colon
XF 498 CNS = system: XF 498 CNS
SNB-78 CNS = system: SNB-78 CNS
DMS 273 small cell lung = system: DMS 273 small cell lung
T-47D breast = system: T-47D breast
BT-549 breast = system: BT-549 breast
NCI/ADR-RES ovarian = system: NCI/ADR-RES ovarian
DU-145 prostate = system: DU-145 prostate
MDA-MB-435 = system: MDA-MB-435

Cc1cccc2c1NC(c1c(C)[nH]c3ccccc13)C2 (stereo not drawn)
TGI (M19-MEL melanoma): > 100 µM | TGI (KM20L2 colon): > 100 µM | TGI (XF 498 CNS): > 100 µM

COc1ccc(/C=N\N2C(=O)Cc3ccccc32)cc1
TGI (M19-MEL melanoma): > 100 µM | TGI (SNB-78 CNS): > 100 µM | TGI (KM20L2 colon): > 100 µM | TGI (XF 498 CNS): 83.9 µM | TGI (DMS 273 small cell lung): > 100 µM

N#CC1(Cc2ccccc2Cl)c2ccccc2C=CN1C(=O)c1ccccc1 (stereo not drawn)
TGI (M19-MEL melanoma): > 100 µM | TGI (SNB-78 CNS): > 100 µM | TGI (KM20L2 colon): > 100 µM | TGI (XF 498 CNS): > 100 µM | TGI (DMS 273 small cell lung): > 100 µM

COC(=O)c1nc(N)[nH]c(=O)c1-c1ccc(Cl)cc1
TGI (M19-MEL melanoma): > 100 µM | TGI (SNB-78 CNS): > 100 µM | TGI (KM20L2 colon): > 100 µM | TGI (XF 498 CNS): > 100 µM | TGI (DMS 273 small cell lung): > 100 µM

Cc1cc(C)cc(NC(=O)CCC(=O)C2CCC/C2=N\NC(=O)C(=O)NN)c1 (stereo not drawn)
TGI (M19-MEL melanoma): > 100 µM | TGI (KM20L2 colon): > 100 µM | TGI (XF 498 CNS): > 100 µM | TGI (DMS 273 small cell lung): > 100 µM

Cn1c(=O)c(C2c3ccccc3Oc3c2c(=O)n(C)c2ccccc32)c(O)c2ccccc21 (stereo not drawn)
TGI (M19-MEL melanoma): > 100 µM | TGI (SNB-78 CNS): > 100 µM | TGI (KM20L2 colon): > 100 µM | TGI (XF 498 CNS): 75.9 µM | TGI (DMS 273 small cell lung): > 100 µM

COc1cc(OC)c(Oc2cccc(OC)c2OC)c(OC)c1
TGI (M19-MEL melanoma): > 100 µM | TGI (SNB-78 CNS): > 100 µM | TGI (KM20L2 colon): > 100 µM | TGI (XF 498 CNS): > 100 µM | TGI (DMS 273 small cell lung): > 100 µM

COC(=O)CC[C@@H](NC(=O)C(C)NC(=O)COC1C(O)C(COC(=O)CCCCCCCCCCNC(=O)c2ccc([N+](=O)[O-])c3[nH]c4cc(Br)ccc4c(=O)c23)OC(OCc2ccccc2)C1NC(C)=O)C(N)=O (stereo partly drawn)
TGI (M19-MEL melanoma): > 100 µM | TGI (SNB-78 CNS): > 100 µM | TGI (KM20L2 colon): > 100 µM | TGI (XF 498 CNS): > 100 µM | TGI (DMS 273 small cell lung): > 100 µM

c1cc(C2O[C@H]3CCCN3[C@@H]2c2ccncc2)ccn1 (stereo partly drawn)
TGI (M19-MEL melanoma): > 100 µM | TGI (SNB-78 CNS): > 100 µM | TGI (KM20L2 colon): > 100 µM | TGI (XF 498 CNS): > 100 µM | TGI (DMS 273 small cell lung): > 100 µM

O=C(O)C(=O)/C=C\c1ccc(Cl)cc1
TGI (M19-MEL melanoma): > 100 µM | TGI (SNB-78 CNS): > 100 µM | TGI (KM20L2 colon): > 100 µM | TGI (XF 498 CNS): > 100 µM | TGI (DMS 273 small cell lung): > 100 µM

CCCCc1c2c(nc3c1CCc1cc(C=O)c(N)nc1-3)/C(=C/c1ccccc1)CCC2
TGI (M19-MEL melanoma): > 100 µM | TGI (SNB-78 CNS): > 100 µM | TGI (KM20L2 colon): > 100 µM | TGI (XF 498 CNS): > 100 µM | TGI (DMS 273 small cell lung): > 100 µM

COc1cc2c3c(c1OC)C1(C=CC(=O)C=C1)CC3N(C(=O)OC(C)(C)C(Cl)(Cl)Cl)CC2 (stereo not drawn)
TGI (M19-MEL melanoma): 24.3 µM | TGI (SNB-78 CNS): 33.8 µM | TGI (KM20L2 colon): 25.2 µM | TGI (XF 498 CNS): 23.9 µM | TGI (DMS 273 small cell lung): 24.5 µM

CC(C)(C)NC(=O)C12C3C4C1C1C2C3C41I (stereo not drawn)
TGI (M19-MEL melanoma): > 100 µM | TGI (SNB-78 CNS): > 100 µM | TGI (KM20L2 colon): > 100 µM | TGI (XF 498 CNS): > 100 µM | TGI (DMS 273 small cell lung): > 100 µM

Nc1ncnc2c1ncn2C1OC(CO)C(O)C1O (stereo not drawn)
TGI (M19-MEL melanoma): > 450 µM | GI50 (T-47D breast): 0.738 µM | TGI (T-47D breast): > 100 µM and 13.5 µM | GI50 (BT-549 breast): 7.69 µM | TGI (BT-549 breast): 59 µM | GI50 (NCI/ADR-RES ovarian): 5.06 µM | TGI (SNB-78 CNS): > 450 µM | TGI (KM20L2 colon): > 450 µM | GI50 (DU-145 prostate): 3.8 µM | TGI (DU-145 prostate): 82.4 µM and 31.4 µM | GI50 (MDA-MB-435): 38.8 µM | TGI (MDA-MB-435): > 100 µM | TGI (XF 498 CNS): > 450 µM | TGI (DMS 273 small cell lung): > 450 µM

CCOc1cccc2cccnc12
TGI (KM20L2 colon): > 100 µM | TGI (XF 498 CNS): > 100 µM

O=C(/C=C(\O)C(=O)O)/C=C(\O)c1ccc(Cl)cc1
TGI (M19-MEL melanoma): > 100 µM | TGI (SNB-78 CNS): > 100 µM | TGI (KM20L2 colon): > 100 µM | TGI (XF 498 CNS): > 100 µM | TGI (DMS 273 small cell lung): > 100 µM

COc1ccc2c(c1)C(CCN)C(=O)N2 (stereo not drawn)
TGI (M19-MEL melanoma): > 100 µM | TGI (SNB-78 CNS): > 100 µM | TGI (KM20L2 colon): > 100 µM | TGI (XF 498 CNS): > 100 µM | TGI (DMS 273 small cell lung): > 100 µM

Cc1cc(C)c(-c2noc(-c3ccc(Cl)cc3)c2C2=NCCN2)c(C)c1
TGI (M19-MEL melanoma): > 100 µM | TGI (SNB-78 CNS): 58.3 µM | TGI (KM20L2 colon): 54 µM | TGI (XF 498 CNS): 38.4 µM

COc1ccccc1NC(=O)CC(=O)NNCC(=O)Nc1nc(-c2ccccc2)cs1
TGI (M19-MEL melanoma): > 100 µM | TGI (SNB-78 CNS): > 100 µM | TGI (KM20L2 colon): > 100 µM | TGI (DMS 273 small cell lung): > 100 µM

O=c1c2ccccc2oc2nccnc12
TGI (M19-MEL melanoma): > 100 µM | TGI (SNB-78 CNS): > 100 µM | TGI (KM20L2 colon): > 100 µM | TGI (XF 498 CNS): > 100 µM | TGI (DMS 273 small cell lung): > 100 µM

O=C(c1ccc(Cl)cc1)N(C(=S)N1CCN(c2ccccc2)CC1)C1CCCCC1
TGI (M19-MEL melanoma): > 100 µM | TGI (SNB-78 CNS): > 100 µM | TGI (KM20L2 colon): > 100 µM | TGI (DMS 273 small cell lung): > 100 µM

CC(C)CCC[C@@H](C)C1CCC2[C@@H]3CC=C4C[C@@H](OC(=O)CCC(=O)NCC[N+](C)(C)CCCS(=O)(=O)[O-])CC[C@]4(C)C3CC[C@@]21C (stereo partly drawn)
TGI (M19-MEL melanoma): 33.4 µM | TGI (SNB-78 CNS): 70.1 µM | TGI (KM20L2 colon): > 100 µM | TGI (DMS 273 small cell lung): 28.5 µM

COC1=C(C(=O)OC(C)(C)C)C23CCCCC2(C(C(=O)OC(C)(C)C)=C(OC)C3C(=O)OC(C)(C)C)C1C(=O)OC(C)(C)C (stereo not drawn)
TGI (M19-MEL melanoma): > 100 µM | TGI (SNB-78 CNS): > 100 µM | TGI (KM20L2 colon): > 100 µM | TGI (XF 498 CNS): > 100 µM | TGI (DMS 273 small cell lung): > 100 µM

NNC(=S)N/N=C(\c1nc2ccc(Cl)cc2[nH]c1=O)C(O)c1ccc(Cl)cc1Cl (stereo not drawn)
TGI (M19-MEL melanoma): > 100 µM | TGI (SNB-78 CNS): > 100 µM | TGI (KM20L2 colon): > 100 µM | TGI (XF 498 CNS): > 100 µM | TGI (DMS 273 small cell lung): > 100 µM

CCOC(=O)C(=C=Cc1cccs1)C(=O)c1ccccc1
TGI (M19-MEL melanoma): 32.1 µM | TGI (SNB-78 CNS): 47.5 µM | TGI (XF 498 CNS): 32.6 µM | TGI (DMS 273 small cell lung): 31.3 µM

CC(=O)OCC1OC(n2c(-c3ccc(N)cc3)cc(-c3ccco3)c(C#N)c2=O)C(OC(C)=O)C(OC(C)=O)C1OC(C)=O (stereo not drawn)
TGI (M19-MEL melanoma): > 50 µM | TGI (SNB-78 CNS): > 50 µM | TGI (KM20L2 colon): > 50 µM | TGI (DMS 273 small cell lung): > 50 µM

Nc1ccc(Cl)cc1.Nc1ccc(Cl)cc1.Nc1ccc(Cl)cc1.O=C([O-])C(=O)[O-].O=C([O-])C(=O)[O-].[H+].[Ru+5]
GI50 (M19-MEL melanoma): 0.0537 µM | TGI (M19-MEL melanoma): 2.15 µM | GI50 (SNB-78 CNS): > 81.9 µM | TGI (SNB-78 CNS): > 100 µM | GI50 (KM20L2 colon): > 100 µM | TGI (KM20L2 colon): > 100 µM | GI50 (XF 498 CNS): > 87.2 µM | TGI (XF 498 CNS): > 100 µM | GI50 (DMS 273 small cell lung): 0.087 µM | TGI (DMS 273 small cell lung): > 100 µM

O=C(CCCCCCCCC(=O)OCCCn1cc(C(=O)NC(=O)OCc2ccccc2)c(=O)[nH]c1=O)OCCCn1cc(C(=O)NC(=O)OCc2ccccc2)c(=O)[nH]c1=O
TGI (M19-MEL melanoma): > 100 µM | TGI (SNB-78 CNS): > 100 µM | TGI (KM20L2 colon): > 100 µM | TGI (DMS 273 small cell lung): > 100 µM

Clc1cc(Cl)c2n[se]nc2c1
TGI (M19-MEL melanoma): > 100 µM | TGI (SNB-78 CNS): > 100 µM | TGI (KM20L2 colon): > 100 µM | TGI (DMS 273 small cell lung): > 100 µM

COC1=C(NC(C)=O)C(=O)c2nc3n(c2C1=O)CCC3
TGI (T-47D breast): 72.7 µM | TGI (NCI/ADR-RES ovarian): 41.1 µM | TGI (SNB-78 CNS): 28.9 µM | TGI (KM20L2 colon): > 100 µM | TGI (DU-145 prostate): 35.8 µM | TGI (MDA-MB-435): 9.97 µM | TGI (XF 498 CNS): 33.6 µM | TGI (DMS 273 small cell lung): 34.6 µM

COc1ccc(NC(=O)CC(=O)n2nc(-c3ccccc3)c(N=Nc3ccc(C)cc3)c2-c2ccccc2)cc1
TGI (M19-MEL melanoma): > 100 µM | TGI (T-47D breast): > 75 µM | TGI (BT-549 breast): > 58 µM | TGI (NCI/ADR-RES ovarian): > 61 µM | TGI (SNB-78 CNS): 61.2 µM | TGI (KM20L2 colon): > 100 µM | TGI (DU-145 prostate): > 100 µM | TGI (MDA-MB-435): > 100 µM | TGI (XF 498 CNS): 24.9 µM | TGI (DMS 273 small cell lung): > 100 µM
